Data set [1] in a line: Brain and plasma concentrations by HPLC after IV administration. It counts as in vivo, C57/BL6 mice. To be noted: single IV administration. The procedure: FIGS. 9A-B show GEMM survival and brain/blood plasma concentrations following treatment with NSC682769. […] C57/BL6 mice were administered NSC682769 IV and mean brain and plasma concentrations were determined via HPLC analyses. (n=5).
Protein and mRNA analyses, immunoprecipitation, in vitro bead-coupled inhibitor binding assays and HPLC analyses. Western blot analyses were performed as previously described (Artinian N, et al. (2015) J Biol Chem 290: 19387-19401). Briefly, cells were lysed in RIPA (lysis) buffer containing protease inhibitor cocktail and phosSTOP™ phosphatase inhibitor cocktail (Roche) and extracts resolved by SDS-PAGE. Proteins were transferred to PVDF membranes and incubated with the indicated antibodies. Antigen-antibody complexes were detected using appropriate horseradish peroxidase-conjugated secondary antibodies (GE Healthcare) and enhanced chemiluminescence (Amersham ECL Prime). […] For quantitative RT-PCR, extraction of RNA was performed using Trizol® (Life Technologies). Total RNA was then quantified and integrity assessed using an Agilent 2100 Bioanalyzer (Agilent Technology). […] SYBR® Green quantitative PCR (Millipore Sigma) was performed in triplicate in 96-well optical plates on an ABI Prism 7000 Sequence Detection System (Life Technologies) according to the manufacturer's instructions. […]

For a further data set, the system named is LN229 and GBM39 cells. In words: Matrigel invasion assay. It is filed as cell-based, human. To be noted: Matrigel-coated membranes. The text has this:
Cells were layered in soft agar to evaluate anchorage-independent growth in the presence of the indicated concentrations of inhibitor and colonies counted following 14 days of growth. Representative crystal violet stained images are shown below. Data represent mean+S.D. of three independent experiments. […] Cells were placed in Boyden chambers and allowed to migrate towards BSA (white bars), vitronectin (light yellow bars), or fibronectin (dark yellow bars) (*, P<0.05; n=3). […] Representative crystal violet stained images are shown (200×). Data represent mean+S.D. of three independent experiments. […] Graphical data shown below represent mean+S.D. (late apoptosis; annexin V-positive, PI-positive) of three independent experiments.
Cell proliferation, clonogenic, migration, invasion and apoptosis assays. Cell proliferation was determined via Cell Titer-Glo® luminescent cell assays (Promega). Clonogenic assays were done by plating a total of 1,000 cells per well in 24-well plates in a total volume of 400 μL using a two-layered soft agar system as previously described (Masri J, et al. (2007) Cancer Res 67: 11712-11720). Cell migration assays were conducted using precoated modified Boyden chambers as previously described (Benavides-Serrato A, et al. (2017) PLoS One 12: e0176599). […]

As for `COc1ccc(-c2cc(-c3ccccc3)nc3c2CC(=O)Nc2ccccc2-3)cc1OC` [NSC682769], the “Cb/Cp ratios (brain/plasma)” value in data set [1] is on record as “consistent with BBB penetrance”. For the same compound, the “Peak value in brain tissue” value in data set [1] (at 5 min post-administration) turned out to be 6.22 µg/g. In addition, the Cell invasiveness entry in the data set with LN229 and GBM39 cells is recorded as “reduced the number of cells able to traverse Matrigel-coated membranes”.

Source of the values: patent US20240108634A1, “COMPOSITIONS AND METHODS FOR INHIBITING YAP” (The United States Government as represented by the …, priority 2021, published 2024).
